From patent US20110027226A1, “INDOLOPYRIDINES AS INHIBITORS OF THE KINESIN SPINDLE PROTEIN (EG5)” (4SC AG, priority 2007, published 2011)

Tests used:
[1] = tested on: RKO human colon adenocarcinoma cells (RKOp27 subclone, uninduced, proliferating); experiment: Alamar Blue cell viability assay, anti-proliferative/cytotoxic activity, RKO p27 uninduced (proliferating); assay type: cell-based; conditions: 72 hours incubation, read-out: −log EC50 [mol/l] RKO p27 uninduced (proliferating) (converted)
Protocol: The compounds are dissolved as 10 mM solutions in DMSO and subsequently diluted in semi-logarithmic steps. DMSO dilutions are further diluted 1:100 v:v into Dulbecco's modified Eagle's medium (DMEM) containing 10% fetal calf serum to a final concentration twice as much as the final concentration in the test. RKO subclones are seeded into 96 well flat bottom plates at a density of 4000 cells per well in a volume of 50 μl per well. 24 hours after seeding the 50 μl each of the compound dilutions in DMEM medium are added into each well of the 96 well plate. Each compound dilution is tested as triplicates. Wells containing untreated control cells are filled with 50 μl DMEM medium containing 1% DMSO. The cells are then incubated with the substances for 72 hours at 37° C. in a humidified atmosphere containing 5% carbon dioxide. To determine the viability of the cells, 10 μl of an Alamar Blue solution (Biosource) are added and the fluorescence is measured at an extinction of 544 nm and an emission of 590 nm. For the calculation of the cell viability the emission value from untreated cells is set as 100% viability and the emission rates of treated cells are set in relation to the values of untreated cells. Viabilities are expressed as % values. The Graphpad Prism program is used for the calculation of EC50 values for anti-proliferative/cytotoxic activity out of the obtained dose-response curves.
Each compound dilution is tested as triplicates. Wells containing untreated control cells are filled with 50 μl DMEM medium containing 1% DMSO. The cells are then incubated with the substances for 72 hours at 37° C. in a humidified atmosphere containing 5% carbon dioxide. To determine the viability of the cells, 10 μl of an Alamar Blue solution (Biosource) are added and the fluorescence is measured at an extinction of 544 nm and an emission of 590 nm. For the calculation of the cell viability the emission value from untreated cells is set as 100% viability and the emission rates of treated cells are set in relation to the values of untreated cells. Viabilities are expressed as % values. The Graphpad Prism program (GraphPad Software, Inc) is used for the calculation of EC50 values out of the obtained dose-response curves. Viability is compared of proliferating cells grown in the absence of the inducer Ponasterone A, versus viability of cells arrested by the expression of ectopic p27Kip1 induced by Ponasterone A.

Row | Compound | EC50 [1] | melting point
1 | CN1C(=O)[C@@H]2Cc3c([nH]c4ccc(Br)cc34)[C@@H](c3cccc(O)c3)N2C1=O (racemic) [Example 3, (3aSR,10RS)-6-Bromo-10-(3-hydroxy-phenyl)-2-methyl-3a,4,9,10-tetrahydro-2,9,10a-triaza-cyclopenta[b]fluorene-1,3-dione] | ≤ 1000 nM | –
2 | Cc1cccc2[nH]c3c(c12)C[C@H]1C(=O)N(C)C(=O)N1[C@@H]3c1cccc(O)c1 (racemic) [Example 5, (3aSR,10RS)-10-(3-Hydroxy-phenyl)-2,5-dimethyl-3a,4,9,10-tetrahydro-2,9,10a-triaza-cyclopenta[b]fluorene-1,3-dione] | ≤ 1000 nM | 348 to 352 °C
3 | Cc1ccc2c3c([nH]c2c1)[C@@H](c1cccc(O)c1)N1C(=O)N(C)C(=O)[C@@H]1C3 (racemic) [Example 6, (3aSR,10RS)-10-(3-Hydroxy-phenyl)-2,7-dimethyl-3a,4,9,10-tetrahydro-2,9,10a-triaza-cyclopenta[b]fluorene-1,3-dione] | – | 282 to 285 °C
4 | CN1C(=O)[C@@H]2Cc3c([nH]c4cc(F)ccc34)[C@@H](c3cccc(O)c3)N2C1=O (racemic) [Example 2, (3aSR,10RS)-7-Fluoro-10-(3-hydroxy-phenyl)-2-methyl-3a,4,9,10-tetrahydro-2,9,10a-triaza-cyclopenta[b]fluorene-1,3-dione] | ≤ 1000 nM | 279 to 283 °C
5 | COc1ccc2[nH]c3c(c2c1)C[C@H]1C(=O)N(C)C(=O)N1[C@@H]3c1cccc(O)c1 (racemic) [Example 7, (3aSR,10RS)-10-(3-Hydroxy-phenyl)-6-methoxy-2-methyl-3a,4,9,10-tetrahydro-2,9,10a-triaza-cyclopenta[b]fluorene-1,3-dione] | ≤ 1000 nM | 172 to 175 °C
6 | Cc1ccc2[nH]c3c(c2c1)C[C@H]1C(=O)N(C)C(=O)N1[C@@H]3c1cccc(O)c1 (racemic) [Example 4, (3aSR,10RS)-10-(3-Hydroxy-phenyl)-2,6-dimethyl-3a,4,9,10-tetrahydro-2,9,10a-triaza-cyclopenta[b]fluorene-1,3-dione] | ≤ 1000 nM | –
